# Test results taken from US9801973B1, “Peptide having zirconia-binding capacity” (SEOUL NATIONAL UNIVERSITY R&DB FOUNDATION, priority 2015, dated 2017).
# Tests used:
# [1] = binding assay using an avidin-biotin complex (binding affinity of zirconia-binding peptide); details: biotin-labeled peptide, 100 nM to 1 μM, room temperature 15 hours
# From the text: (§1) In order to examine the binding affinities of the peptides synthesized in Example 1 and Comparative Examples 1 and 2, the peptides were labeled with biotin. Each of the synthesized peptide domains was biotinylated using EZ-Link Sulfo-NHS-Biotin (Pierce Biotechnology, USA) according to the manufacturer's instruction, and unbound byproducts were removed by ultrafiltration that is a membrane separation method based on a pressure difference. The molecular weights of the synthesized products were measured by mass spectrometry. The synthesized products were analyzed and purified by reverse phase liquid chromatography. For analysis, a C18 column having a diameter of 4.6 mm was used, and 0.1% TFA/H2O and 0.092% TFA/acetonitrile were flushed onto the column at a rate of 1 ml/min with a gradient of 0-60% for 30 minutes. The wavelength of the UV detector used was 220 nm. For purification, a column having a diameter of 2.2 cm was used, and a flow rate of 20 ml/min and the solvent and detection wavelength as described above were used. Only the biotin-labeled peptide fraction was collected, and concentrated using a rotary evaporator to remove the solvent, followed by freeze-drying.
# To measure the binding affinity of the zirconia-binding peptide, a binding assay using an avidin-biotin complex was performed. Specifically, one zirconia disc was placed in each well of a 12-well polystyrene plate, and then blocked with a blocking buffer (0.1 M NaHCO3 (pH 8.6), 5 mg/ml BSA, 0.02% NaN3 (optional), filter sterilize) for at least one hour. Next, the blocking buffer was discarded, and each zirconia disc was strongly washed six times or more with a washing buffer (TBS+0.1% [v/v] Tween-20), after which 200 μl of each of the zirconia-binding peptide Zr-BP (SEQ ID NO: 1) of Example 1 and the peptides Zr-BPC (SEQ ID NO: 2), PL1 (SEQ ID NO: 3) and PL2 (SEQ ID NO: 4) of Comparative Examples 1 and 2, which were biotin-labeled, synthesized, separated and purified in Example 3-1, was dispensed to the surface of each zirconia disc at a concentration ranging from 100 nM to 1 μM. Each zirconia disc was incubated at room temperature for 15 hours, and then washed strongly with a washing buffer, and 200 μl of a 1:500 dilution of ExtrAvidin-peroxidase (Cat. #E2886, Sigma-Aldrich, USA) in a blocking buffer was dispensed to the surface of each zirconia disc. Each zirconia disc was incubated at room temperature for 1 hour, and then washed strongly with a washing buffer, after which 200 μl of a substrate solution (2,2′-AZINO-BIS, Cat. #A3219, Sigma-Aldrich, USA) was dispensed to the surface of each zirconia disc and allowed to react at room temperature for 20 minutes so as to develop color. Each zirconia disc was treated with 200 μl of 1% SDS solution to stop the reaction, and the absorbance at 405 nm was measured.
# [2] = binding assay using an avidin-biotin complex (maximum binding amount per zirconia disc)
# From the text: as §1
# To examine the maximum binding amount of the zirconia-binding peptide Zr-BP (SEQ ID NO: 1) per unit area of the zirconia disc surface, a binding assay using a avidin-biotin complex was performed. Specifically, one zirconia disc was placed in each well of a 12-well polystyrene plate, and then blocked with a blocking buffer (0.1 M NaHCO3 (pH 8.6), 5 mg/ml BSA, 0.02% NaN3 (optional), filter sterilize) for at least one hour. […] Each zirconia disc was treated with 200 μl of 1% SDS solution to stop the reaction, and the absorbance at 405 nm was measured.
Sequence,absorbance value at 405 nm (binding to the zirconia disc surface) ([1]; FIG. 2),absorbance value at 405 nm (binding to the zirconia disc surface) ([1]; FIG. 1),"maximum amount of zirconia-binding peptide bound to the surface of one zirconia disc ([2]; back-calculation from molecular weight and dispensing amount, disc diameter 15.5 mm) [µg]","concentration showing the maximum absorbance value ([2]; biotin-labeled peptide, 100 nM to 40 mM, 200 μl per disc, room temperature 15 hours, FIG. 3) [mM]","zirconia-binding peptide fixed per mm^2 of the zirconia disc surface ([2]; per mm^2, disc diameter 15.5 mm)"
IGNSFSFPAVYR (PL1),do not bind to the zirconia disc surface,,,,
VSAAGTKASPAV (Zr-BPC),,binding affinity thereof is reduced,,,
LRLDVDRAISLL (PL2),do not bind to the zirconia disc surface,,,,
VSPFGTKWSPFV (Zr-BP),higher than those of the peptides (PL1 and PL2) of Comparative Example 2,higher than that of the peptide Zr-BPC of Comparative Example 1,622.8,2,about 3.3 μg
